Measured values reported in ChEMBL document CHEMBL3137667, “[Drug-induced liver injury; fourteenth updated edition of the bibliographic database of liver injuries and related drugs]” (Gastroenterol Clin Biol, 2004).

Legend:
[1] = Highest frequency of moderate liver toxicity observed during clinical trials, expressed as a percentage. [column '% BIOL' in source]; settings: human
[2] = Highest frequency of acute liver toxicity observed during clinical trials, expressed as a percentage. [column '% AIGUE' in source]; settings: human
[3] = human, serum
[4] = human, serum; remark: listed apart in the source
[5] = human
[6] = human; remark: listed apart in the source
[7] = human; remark: listed apart in the source
[8] = human, serum, 4383 h
[9] = human; remark: listed apart in the source
[10] = human; remark: listed apart in the source
[11] = human; remark: listed apart in the source
[12] = human; remark: listed apart in the source
[13] = human; remark: listed apart in the source
[14] = human; remark: listed apart in the source
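For Hepatotoxicity (association with vascular disease) in this document: count of indexed literature references reporting vascular liver injury in humans, e.g. peliosis hepatitis, hepatic veno-occlusive disease or Budd-Chiari syndrome.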
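For Hepatotoxicity (benign tumour) in this document: value is a count of indexed literature references citing a benign tumour confirmed by histopathology.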
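For Hepatotoxicity (choleostasis) in this document: human cholestatic liver injury, shown by histopathology or by peak ALT or AST elevation over alkaline phosphatase ratio below 2, value counts indexed literature reports.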
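For Hepatotoxicity (chronic liver disease) in this document: chronic liver injury confirmed by histopathology or persistently raised serum aminotransferase activity beyond 6 months, value given as the count of indexed literature references.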
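For Hepatotoxicity (cirrhosis) in this document: value is a count of indexed literature references reporting cirrhosis confirmed by histopathology.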
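For Hepatotoxicity (cytolytic) in this document: human cytolytic liver injury, shown by histopathology or by a ratio above 5 of peak ALT or AST elevation to alkaline phosphatase elevation, value counts indexed references.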
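For Hepatotoxicity (granulomatous hepatitis) in this document: value is a count of indexed literature references reporting granulomatous liver disease confirmed by histopathology.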
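For Hepatotoxicity (malignant tumour) in this document: malignant tumour confirmed by histopathology, value gives the count of indexed literature references reporting it.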
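For Hepatotoxicity (severe hepatitis) in this document: human clinical data: severe hepatitis, meaning potentially life-threatening liver failure or clinically observed cases, the value counts how many indexed literature references report it.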
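For Hepatotoxicity (steatosis) in this document: steatosis confirmed by histopathology, value is the count of indexed references.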

| Compound | Hepatotoxicity (moderate) [1] [%] | Hepatotoxicity (acute) [2] [%] | Hepatotoxicity (moderate) [3] | Hepatotoxicity (acute) [4] | Hepatotoxicity (cytolytic) [5] | Hepatotoxicity (choleostasis) [6] | Hepatotoxicity (severe hepatitis) [7] | Hepatotoxicity (chronic liver disease) [8] | Hepatotoxicity (cirrhosis) [9] | Hepatotoxicity (granulomatous hepatitis) [10] | Hepatotoxicity (association with vascular disease) [11] | Hepatotoxicity (steatosis) [12] | Hepatotoxicity (malignant tumour) [13] | Hepatotoxicity (benign tumour) [14] |
| --- | --- | --- | --- | --- | --- | --- | --- | --- | --- | --- | --- | --- | --- | --- |
| CO[C@@]1(NC(=O)CSCC#N)C(=O)N2C(C(=O)O)=C(CSc3nnnn3C)CS[C@@H]21 [CEFMETAZOLE] | 9.1 | 0 | 5 | 0 | 0 | 0 | 0 | 0 | 0 | 0 | 0 | 0 | 0 | 0 |
| CO/N=C(\C(=O)N[C@@H]1C(=O)N2C(C(=O)O)=C(CSc3nc(C)c(CC(=O)O)s3)CS[C@H]12)c1csc(N)n1 [CEFODIZIME] | 44.4 | 0 | 51 | 0 | 0 | 0 | 0 | 0 | 0 | 0 | 0 | 0 | 0 | 0 |
| CO/N=C(\C(=O)N[C@@H]1C(=O)N2C(C(=O)[O-])=C(C[n+]3ccc(N)n3CCO)CS[C@H]12)c1csc(N)n1 [CEFOSELIS] | 25 | 0 | 33 | 0 | 0 | 0 | 0 | 0 | 0 | 0 | 0 | 0 | 0 | 0 |
| CO[C@@]1(NC(=O)C2SC(=C(C(N)=O)C(=O)O)S2)C(=O)N2C(C(=O)O)=C(CSc3nnnn3C)CS[C@@H]21 (some centres undefined) [CEFOTETAN] | 37.5 | 0 | 10 | 0 | 0 | 0 | 0 | 0 | 0 | 0 | 0 | 0 | 0 | 0 |
| CO/N=C(\C(=O)N[C@@H]1C(=O)N2C(C(=O)[O-])=C(C[n+]3ccn4ncccc43)CS[C@H]12)c1nsc(N)n1 [CEFOZOPRAN] | 50 | 0 | 68 | 0 | 0 | 0 | 0 | 0 | 0 | 0 | 0 | 0 | 0 | 0 |
| O=C(O)C1=C(C[n+]2ccc(CCS(=O)(=O)[O-])cc2)CS[C@@H]2[C@H](NC(=O)[C@H](NC(=O)c3[nH]cnc3C(=O)O)c3ccccc3)C(=O)N12 [CEFPIMIZOLE] | 18.8 | 0 | 30 | 0 | 0 | 0 | 0 | 0 | 0 | 0 | 0 | 0 | 0 | 0 |
| CO/N=C(\C(=O)N[C@@H]1C(=O)N2C(C(=O)[O-])=C(C[n+]3cccc4c3CCC4)CS[C@H]12)c1csc(N)n1 [CEFPIROME] | 33.3 | 0 | 62 | 0 | 0 | 0 | 0 | 0 | 0 | 0 | 0 | 0 | 0 | 0 |
| COCC1=C(C(=O)OC(C)OC(=O)OC(C)C)N2C(=O)[C@@H](NC(=O)/C(=N\OC)c3csc(N)n3)[C@H]2SC1 (some centres undefined) [CEFPODOXIME PROXETIL] | 7.1 | 0 | 13 | 0 | 0 | 0 | 0 | 0 | 0 | 0 | 0 | 0 | 0 | 0 |
| COCC1=C(C(=O)O)N2C(=O)[C@@H](NC(=O)/C(=N\OC)c3csc(N)n3)[C@H]2SC1 [CEFPODOXIME] | 33.3 | 0 | 29 | 0 | 0 | 0 | 0 | 0 | 0 | 0 | 0 | 0 | 0 | 0 |
| CC=CC1=C(C(=O)O)N2C(=O)[C@@H](NC(=O)[C@H](N)c3ccc(O)cc3)[C@H]2SC1 [CEFPROZIL] | 25 | 0.6 | 42 | 1 | 0 | 1 | 0 | 0 | 0 | 0 | 0 | 0 | 0 | 0 |
| COC1=C(C(=O)O)N2C(=O)[C@@H](NC(=O)[C@H](N)C3=CCC=CC3)[C@H]2SC1 [CEFROXADINE] | 2 | 0 | 1 | 0 | 0 | 0 | 0 | 0 | 0 | 0 | 0 | 0 | 0 | 0 |
